In paper PMC11326381, “Structural Study of Selectivity Mechanisms for JNK3 and p38α with Indazole Scaffold Probing Compounds” (Research Square, 2024):

Assays:
[1] = target: JNK3 (Homo sapiens, UniProt P53779); assay: HTRF enzyme inhibition assay, JNK3; assay type: biochemical
Procedure: Homogeneous Time-resolved Fluorescence Assay (HTRF)
Enzyme inhibition assays to determine IC50 values for the kinases were performed as described previously.

[2] = system: JNK1; details: cited from earlier work

Chain of JNK3 (P53779 whole entry): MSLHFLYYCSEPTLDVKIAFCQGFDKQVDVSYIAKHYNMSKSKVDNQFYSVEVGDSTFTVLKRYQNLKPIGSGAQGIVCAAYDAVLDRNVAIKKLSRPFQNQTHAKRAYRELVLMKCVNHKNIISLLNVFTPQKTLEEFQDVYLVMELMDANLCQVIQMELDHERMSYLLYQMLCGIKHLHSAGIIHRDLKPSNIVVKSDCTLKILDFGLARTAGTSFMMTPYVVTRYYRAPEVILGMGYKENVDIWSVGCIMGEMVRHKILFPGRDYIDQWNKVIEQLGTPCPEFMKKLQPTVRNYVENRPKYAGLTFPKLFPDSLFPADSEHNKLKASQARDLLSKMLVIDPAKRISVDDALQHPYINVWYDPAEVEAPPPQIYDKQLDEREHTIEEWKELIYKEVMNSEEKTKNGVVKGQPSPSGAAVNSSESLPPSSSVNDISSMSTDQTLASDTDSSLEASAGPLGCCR

Row | Structure (SMILES) | IC50 [1] [nM] | affinity for JNK1 [2]
1 | COc1ccccc1Nc1cc2cnn(-c3cc(C(=O)NC4COC4)sc3C)c2cc1F [Compound 23GA] | 1000 | 
2 | CNC(=O)c1cc(-n2ncc3cc(Nc4c(F)cccc4Cl)c(CN4CCC4)cc32)cs1 [Compound 21G] | 137 | 
3 | Cc1ccc(-n2nc(C(C)(C)C)cc2NC(=O)Nc2ccc(OCCN3CCOCC3)c3ccccc23)cc1 [BIRB796] |  | no affinity
4 | COc1ccccc1Nc1cc2cnn(-c3csc(C(=O)NC4COC4)c3)c2cc1F [Compound 23M] | 14 | 
5 | CNC(=O)c1cc(-n2ncc3cc(Nc4c(F)cccc4Cl)c(COC)cc32)cs1 [Compound 21J] | 6 | 
